Reference: PubChem BioAssay AID248 (DTP/NCI, 2004)
Where “and” joins values, the source holds several entries; their conditions need not be identical. Equal entries are not always repeated. Inconclusive results and toxic doses are left out. Cut-off read from the data, not from the text of the source: active = T/C of 150% or more; inactive = T/C below 125%.

Test system: L1210 leukemia ip in BDF1 mice, survival T/C
Experiment: NCI In Vivo Anticancer Drug Screen. Data for tumor model L1210 Leukemia (intraperitoneal) in B6D2F1 (BDF1) mice
Conditions: endpoint: mean survival time, higher = longer survival
Procedure, shortened: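 Ratio derived from survival: compound-dosed mice over vehicle-dosed mice, all bearing a transplantable tumor.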

[1] = dose: 75.0 mg/kg/injection, schedule: Q01DX001 (ip), vehicle: saline
[2] = dose: 150.0 mg/kg/injection, schedule: Q01DX001 (ip), vehicle: saline
[3] = dose: 100.0 mg/kg/injection, schedule: Q04DX003 (ip), vehicle: saline with Tween-80
[4] = dose: 200.0 mg/kg/injection, schedule: Q04DX003 (ip), vehicle: saline with Tween-80
[5] = dose: 400.0 mg/kg/injection, schedule: Q04DX003 (ip), vehicle: saline with Tween-80
[6] = dose: 50.0 mg/kg/injection, schedule: Q04DX003 (ip), vehicle: saline
[7] = dose: 100.0 mg/kg/injection, schedule: Q04DX003 (ip), vehicle: saline
[8] = dose: 200.0 mg/kg/injection, schedule: Q04DX003 (ip), vehicle: saline
[9] = dose: 100.0 mg/kg/injection, schedule: Q01DX009 (ip), vehicle: Klucel (hydroxypropylcellulose) (HPC)
[10] = dose: 100.0 mg/kg/injection, schedule: Q04DX003 (ip), vehicle: Klucel (hydroxypropylcellulose) (HPC)
[11] = dose: 200.0 mg/kg/injection, schedule: Q01DX009 (ip), vehicle: Klucel (hydroxypropylcellulose) (HPC)
[12] = dose: 200.0 mg/kg/injection, schedule: Q04DX003 (ip), vehicle: Klucel (hydroxypropylcellulose) (HPC)
[13] = dose: 400.0 mg/kg/injection, schedule: Q01DX009 (ip), vehicle: Klucel (hydroxypropylcellulose) (HPC)
[14] = dose: 400.0 mg/kg/injection, schedule: Q04DX003 (ip), vehicle: Klucel (hydroxypropylcellulose) (HPC)
[15] = dose: 100.0 mg/kg/injection, schedule: Q01DX001 (ip), vehicle: saline
[16] = dose: 200.0 mg/kg/injection, schedule: Q01DX001 (ip), vehicle: saline
[17] = dose: 400.0 mg/kg/injection, schedule: Q01DX001 (ip), vehicle: saline

Measured: T/C

NC1CCC(c2ccccc2)(c2ccccc2)C1=O (stereo unspecified)
inactive: [1] 100 % of control | [2] 102 % of control

O=C1CNCSC1
inactive: dose: 100.0 mg/kg/injection, schedule: Q04DX002 (ip), vehicle: saline 102 % of control | dose: 200.0 mg/kg/injection, schedule: Q04DX002 (ip), vehicle: saline 115 % of control | dose: 400.0 mg/kg/injection, schedule: Q04DX002 (ip), vehicle: saline 94 % of control

CC(C(=O)c1ccccc1)C(O)(C(F)(F)F)C(F)(F)F (stereo unspecified)
inactive: [3] 97 % of control | [4] 97 % of control | [5] 99 % of control

O=[N+]([O-])c1ccc(N/N=C/C(c2ccccc2)c2ccsc2)c([N+](=O)[O-])c1 (stereo unspecified)
inactive: [6] 104 % of control | dose: 100.0 mg/kg/injection, schedule: Q01DX001 (ip), vehicle: saline with Tween-80 97 % of control | [7] 106 % of control | dose: 200.0 mg/kg/injection, schedule: Q01DX001 (ip), vehicle: saline with Tween-80 96 % of control | [8] 104 % of control

Cc1ccc(S(=O)(=O)N/N=C/N(C)C)cc1
inactive: [9] 91 % of control | [10] 102 % of control | [11] 98 % of control | [12] 103 % of control | [13] 96 % of control | [14] 97 % of control

NC1C2C3CCC(C(C(=O)O)C3C(=O)O)C12 (stereo unspecified)
inactive: [3] 89 % of control | [4] 110 % of control | [5] 100 % of control

O=C1/C(=C\c2cccc3ccccc23)CS(=O)(=O)C/C1=C/c1cccc2ccccc12
inactive: [15] 95 % of control | [16] 94 % of control | [17] 94 % of control

O=C(N/N=C/C1CC2C=CC1C2)c1ccncc1 (stereo unspecified)
inactive: dose: 25.0 mg/kg/injection, schedule: Q01DX009 (ip), vehicle: saline with Tween-80 100 % of control | dose: 50.0 mg/kg/injection, schedule: Q01DX009 (ip), vehicle: saline with Tween-80 102 % of control | dose: 100.0 mg/kg/injection, schedule: Q01DX009 (ip), vehicle: saline with Tween-80 95 % of control and 103 % of control

CCc1ccccc1NC(=O)Nc1ccc(Cl)c(Cl)c1
inactive: [9] 88 % of control | [10] 98 % of control | [11] 96 % of control | [12] 93 % of control | [13] 88 % of control | [14] 104 % of control

CC(=O)c1ccc(N=Nc2ccc(N(C)C)cc2)cc1
inactive: dose: 100.0 mg/kg/injection, schedule: Q01DX009 (ip), vehicle: carboxymethylcellulose (CMC) 100 % of control and 110 % of control | dose: 100.0 mg/kg/injection, schedule: Q04DX002 (ip), vehicle: carboxymethylcellulose (CMC) 100 % of control | dose: 100.0 mg/kg/injection, schedule: Q04DX003 (ip), vehicle: carboxymethylcellulose (CMC) 100 % of control | dose: 200.0 mg/kg/injection, schedule: Q01DX009 (ip), vehicle: carboxymethylcellulose (CMC) 98 % of control and 102 % of control | dose: 200.0 mg/kg/injection, schedule: Q04DX002 (ip), vehicle: carboxymethylcellulose (CMC) 93 % of control | dose: 200.0 mg/kg/injection, schedule: Q04DX003 (ip), vehicle: carboxymethylcellulose (CMC) 101 % of control | dose: 400.0 mg/kg/injection, schedule: Q01DX009 (ip), vehicle: carboxymethylcellulose (CMC) 95 % of control and 90 % of control | dose: 400.0 mg/kg/injection, schedule: Q04DX002 (ip), vehicle: carboxymethylcellulose (CMC) 88 % of control | dose: 400.0 mg/kg/injection, schedule: Q04DX003 (ip), vehicle: carboxymethylcellulose (CMC) 101 % of control

CC(=O)CC(=O)NCC(CCN(C)C)(c1cccc2ccccc12)C(C)C (stereo unspecified)
inactive: dose: 12.5 mg/kg/injection, schedule: Q04DX003 (ip), vehicle: saline 105 % of control | dose: 25.0 mg/kg/injection, schedule: Q04DX003 (ip), vehicle: saline 97 % of control | [6] 99 % of control

Nc1cc(S(N)(=O)=O)ccc1SSc1ccc(S(N)(=O)=O)cc1N
inactive: dose: 100.0 mg/kg/injection, schedule: Q01DX009 (ip), vehicle: saline 105 % of control | [7] 96 % of control | dose: 200.0 mg/kg/injection, schedule: Q01DX009 (ip), vehicle: saline 99 % of control | [8] 94 % of control | dose: 400.0 mg/kg/injection, schedule: Q01DX009 (ip), vehicle: saline 110 % of control | dose: 400.0 mg/kg/injection, schedule: Q04DX003 (ip), vehicle: saline 89 % of control

NC(CSC(c1ccccc1)c1ccccc1)C(=O)O (stereo unspecified)
inactive: dose: 10.0 mg/kg/injection, schedule: Q01DX015 (ip), vehicle: saline 97 % of control | dose: 20.0 mg/kg/injection, schedule: Q01DX015 (ip), vehicle: saline 91 % of control | dose: 40.0 mg/kg/injection, schedule: Q01DX015 (ip), vehicle: saline 95 % of control | dose: 50.0 mg/kg/injection, schedule: Q01DX001 (ip), vehicle: carboxymethylcellulose (CMC) 98 % of control | dose: 79.0 mg/kg/injection, schedule: Q01DX015 (ip), vehicle: saline 92 % of control | dose: 100.0 mg/kg/injection, schedule: Q01DX001 (ip), vehicle: carboxymethylcellulose (CMC) 101 % of control | [15] 101 % of control | dose: 158.0 mg/kg/injection, schedule: Q01DX015 (ip), vehicle: saline 95 % of control | dose: 200.0 mg/kg/injection, schedule: Q01DX001 (ip), vehicle: carboxymethylcellulose (CMC) 87 % of control | [16] 100 % of control | dose: 316.0 mg/kg/injection, schedule: Q01DX015 (ip), vehicle: saline 98 % of control | dose: 400.0 mg/kg/injection, schedule: Q01DX001 (ip), vehicle: carboxymethylcellulose (CMC) 87 % of control | [17] 101 % of control | dose: 632.0 mg/kg/injection, schedule: Q01DX015 (ip), vehicle: saline 97 % of control

O=[N+]([O-])c1ccc(/C=N/O)o1
inactive: dose: 10.0 mg/kg/injection, schedule: Q04DX002 (ip), vehicle: Klucel (hydroxypropylcellulose) (HPC) 102 % of control | dose: 20.0 mg/kg/injection, schedule: Q04DX002 (ip), vehicle: Klucel (hydroxypropylcellulose) (HPC) 117 % of control | dose: 40.0 mg/kg/injection, schedule: Q04DX002 (ip), vehicle: Klucel (hydroxypropylcellulose) (HPC) 104 % of control | dose: 50.0 mg/kg/injection, schedule: Q01DX001 (ip), vehicle: saline 111 % of control

C[n+]1ccc(C(=O)O)c2ccccc21
inactive: [1] 94 % of control | dose: 75.0 mg/kg/injection, schedule: Q04DX003 (ip), vehicle: acetone 92 % of control | [2] 95 % of control | dose: 150.0 mg/kg/injection, schedule: Q04DX003 (ip), vehicle: acetone 89 % of control | dose: 300.0 mg/kg/injection, schedule: Q01DX001 (ip), vehicle: saline 90 % of control

O=C(O)CCC(CC(=O)O)c1ccccc1 (stereo unspecified)
inactive: [9] 97 % of control | [11] 96 % of control | [13] 93 % of control

CN(C)c1ccc(N=Cc2ccccc2O)cc1.[Co]
inactive: dose: 100.0 mg/kg/injection, schedule: Q01DX001 (ip), vehicle: other 90 % of control | dose: 200.0 mg/kg/injection, schedule: Q01DX001 (ip), vehicle: other 94 % of control | dose: 400.0 mg/kg/injection, schedule: Q01DX001 (ip), vehicle: other 91 % of control
